Source: patent US6358885B1, “Substituted phenylheterocyclic herbicides” (Mississippi State University, priority 1992, dated 2002)

Legend:
bedstraw [1] = experiment: Test B preemergence/postemergence greenhouse plant response rating 0 to 10; type: in vivo, Galium aparine; conditions: 0 to 10 scale
Summary of the method: (§1)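 Postemergence treatment of plants two to eighteen cm tall ran alongside preemergence treatment of planted seed, each using compound in a non-phytotoxic solvent.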

corn [2] = experiment: as above; type: in vivo, Zea mays; conditions: 0 to 10 scale
Summary of the method: as §1

sugar beet = experiment: as above; type: in vivo, Beta vulgaris; conditions: 0 to 10 scale
Summary of the method: as §1

wild buckwheat = experiment: as above; type: in vivo, Polygonum convolvulus; conditions: 0 to 10 scale
Summary of the method: as §1

bedstraw [3] = experiment: Test C preemergence/postemergence greenhouse plant response rating 0 to 100; type: in vivo, Galium aparine; conditions: POSTEMERGENCE; for Plant response rating, Bedstraw: 0 to 100 scale
Text: (§2) The compounds evaluated in this test were formulated in a non-phytoxic solvent and applied to the soil surface before plant seedlings emerged (preemergence application), to water that covered the soil surface (flood application), and to plants that were in the one-to-four leaf stage (postemergence application). A sandy loam soil was used for the preemergence and postemergence tests, while a silt loam soil was used in the flood test. Water depth was approximately 2.5 cm for the flood test and was maintained at this level for the duration of the test. Plant species in the preemergence and postemergence tests consisted of barley (Hordeum vulgare), bedstraw (Galium aparine), blackgrass (Alopecurus myosuroides), chickweed (Stellaria media), corn (Zea mays), cotton (Gossypium hirsutum), crabgrass (Digitaria sanguinalis), downy brome (Bromus tectorum), giant foxtail (Setaria faberii), lambsquarters (Chenopodium album), morningglory (Ipomoea hederacea), pigweed ([…]), rape (Brassica napus), ryegrass (Lolium multiflorum), sorghum (Sorghum bicolor), soybean (Glycine max), speedwell (Veronica persica), sugar beet (Beta vulgaris), velvetleaf (Abutilon theophrasti), wheat (Triticum aestivum), wild buckwheat (Polygonum convolvulus), and wild oat (Avena fatua). All plant species were planted one day before application of the compound for the preemergence portion-of this test. Plantings of these species were adjusted to produce plants of appropriate size for the post-emergence portion of the test. […] All plant species were grown using normal greenhouse practices. Visual evaluations of injury expressed on treated plants, when compared to untreated controls, were recorded approximately fourteen to twenty one days after application of the test compound. […] A dash (-) response means no test result.

corn [4] = experiment: as above; type: in vivo, Zea mays; conditions: POSTEMERGENCE; for Plant response rating, Corn: 0 to 100 scale
Text: as §2

cotton = experiment: as above; type: in vivo, Gossypium hirsutum; conditions: POSTEMERGENCE; for Plant response rating, Cotton: 0 to 100 scale
Text: as §2

downy brome = experiment: as above; type: in vivo, Bromus tectorum; conditions: POSTEMERGENCE; for Plant response rating Downy Brome: 0 to 100 scale
Text: as §2

giant foxtail = experiment: as above; type: in vivo, Setaria faberii; conditions: POSTEMERGENCE; for Plant response rating, Giant foxtail: 0 to 100 scale
Text: as §2

morningglory = experiment: as above; type: in vivo, Ipomoea hederacea; conditions: POSTEMERGENCE; for Plant response rating, Morningglory: 0 to 100 scale
Text: as §2

sorghum = experiment: as above; type: in vivo, Sorghum bicolor; conditions: POSTEMERGENCE; for Plant response rating, Sorghum: 0 to 100 scale
Text: as §2

velvetleaf = experiment: as above; type: in vivo, Abutilon theophrasti; conditions: POSTEMERGENCE; for Plant response rating, Velvetleaf: 0 to 100 scale
Text: as §2

wheat = experiment: as above; type: in vivo, Triticum aestivum; conditions: POSTEMERGENCE; for Plant response rating, Wheat: 0 to 100 scale
Text: as §2

wild oat = experiment: as above; type: in vivo, Avena fatua; conditions: POSTEMERGENCE; for Plant response rating, Wild oat: 0 to 100 scale
Text: as §2

duck salad = experiment: Test C flood test plant response rating 0 to 100; type: in vivo, Heteranthera limosa; conditions: for Plant response rating (0 to 100), Duck salad: under POSTEMERGENCE head (flood test species); for Plant response rating Duck salad: flood test species listed under POSTEMERGENCE, 0 to 100 scale
Text: as §2

barnyardgrass = experiment: Test C flood test plant response rating 0 to 100; type: in vivo, Echinochloa crus-galli; conditions: for Plant response rating (0 to 100), Barnyardgrass: under POSTEMERGENCE head (flood test species); for Plant response rating, Barnyardgrass: flood test species listed under POSTEMERGENCE, 0 to 100 scale
Text: as §2

SMILES: C#CC(C)Oc1cc(-c2nn3c(c2Cl)CCCC3)c(F)cc1Cl (stereo not drawn) [Compound 36]
- Plant response rating, Bedstraw (bedstraw [1]; POSTEMERGENCE, Rate 50 g/ha): 10
- Plant response rating, Bedstraw (bedstraw [1]; POSTEMERGENCE, Rate 200 g/ha): 10
- Plant response rating, Bedstraw (bedstraw [1]; PREEMERGENCE, Rate 50 g/ha): 10
- Plant response rating, Corn (corn [2]; POSTEMERGENCE, Rate 50 g/ha): 5
- Plant response rating, Corn (corn [2]; POSTEMERGENCE, Rate 200 g/ha): 6
- Plant response rating, Corn (corn [2]; PREEMERGENCE, Rate 50 g/ha): 0
- Plant response rating, Corn (corn [2]; Rate 200 g/ha, PREEMERGENCE): 4
- Plant response rating, Sugar beet (sugar beet; POSTEMERGENCE, Rate 50 g/ha): 10
- Plant response rating, Sugar beet (sugar beet; PREEMERGENCE, Rate 50 g/ha): 9
- Plant response rating, Sugar beet (sugar beet; Rate 200 g/ha, POSTEMERGENCE): 10
- Plant response rating, Sugar beet (sugar beet; Rate 200 g/ha, PREEMERGENCE): 9
- Plant response rating, Wild buckwheat (wild buckwheat; POSTEMERGENCE, Rate 50 g/ha): 10
- Plant response rating, Wild buckwheat (wild buckwheat; PREEMERGENCE, Rate 50 g/ha): 10
- Plant response rating, Wild buckwheat (wild buckwheat; Rate 200 g/ha, POSTEMERGENCE): 10
- Plant response rating, Wild buckwheat (wild buckwheat; Rate 200 g/ha, PREEMERGENCE): 10
- Plant response rating, Bedstraw (bedstraw [3]; 62 g/ha): 100
- Plant response rating, Bedstraw (bedstraw [3]; 125 g/ha): 100
- Plant response rating (0 to 100), Bedstraw (bedstraw [3]; Rate 16 g/ha): 90
- Plant response rating (0 to 100), Bedstraw (bedstraw [3]; Rate 31 g/ha): 100
- Plant response rating, Corn (corn [4]; 62 g/ha): 50
- Plant response rating, Corn (corn [4]; 125 g/ha): 60
- Plant response rating (0 to 100), Corn (corn [4]; Rate 16 g/ha): 30
- Plant response rating (0 to 100), Corn (corn [4]; Rate 31 g/ha): 40
- Plant response rating, Cotton (cotton; 62 g/ha): 100
- Plant response rating, Cotton (cotton; 125 g/ha): 100
- Plant response rating (0 to 100), Cotton (cotton; Rate 16 g/ha): 100
- Plant response rating (0 to 100), Cotton (cotton; Rate 31 g/ha): 100
- Plant response rating Downy Brome (downy brome; 62 g/ha): 40
- Plant response rating Downy Brome (downy brome; 125 g/ha): 50
- Plant response rating (0 to 100), Downy Brome (downy brome; Rate 16 g/ha): 20
- Plant response rating (0 to 100), Downy Brome (downy brome; Rate 31 g/ha): 30
- Plant response rating, Giant foxtail (giant foxtail; 62 g/ha): 75
- Plant response rating, Giant foxtail (giant foxtail; 125 g/ha): 85
- Plant response rating (0 to 100), Giant foxtail (giant foxtail; Rate 16 g/ha): 50
- Plant response rating (0 to 100), Giant foxtail (giant foxtail; Rate 31 g/ha): 60
- Plant response rating, Morningglory (morningglory; 62 g/ha): 100
- Plant response rating, Morningglory (morningglory; 125 g/ha): 100
- Plant response rating (0 to 100), Morningglory (morningglory; Rate 16 g/ha): 80
- Plant response rating (0 to 100), Morningglory (morningglory; Rate 31 g/ha): 80
- Plant response rating, Sorghum (sorghum; 62 g/ha): 60
- Plant response rating, Sorghum (sorghum; 125 g/ha): 70
- Plant response rating (0 to 100), Sorghum (sorghum; Rate 16 g/ha): 40
- Plant response rating (0 to 100), Sorghum (sorghum; Rate 31 g/ha): 50
- Plant response rating, Velvetleaf (velvetleaf; 62 g/ha): 100
- Plant response rating, Velvetleaf (velvetleaf; 125 g/ha): 100
- Plant response rating (0 to 100), Velvetleaf (velvetleaf; Rate 16 g/ha): 100
- Plant response rating (0 to 100), Velvetleaf (velvetleaf; Rate 31 g/ha): 100
- Plant response rating, Wheat (wheat; 62 g/ha): 50
- Plant response rating, Wheat (wheat; 125 g/ha): 50
- Plant response rating (0 to 100), Wheat (wheat; Rate 16 g/ha): 20
- Plant response rating (0 to 100), Wheat (wheat; Rate 31 g/ha): 30
- Plant response rating, Wild oat (wild oat; 62 g/ha): 30
- Plant response rating, Wild oat (wild oat; 125 g/ha): 50
- Plant response rating (0 to 100), Wild oat (wild oat; Rate 16 g/ha): 10
- Plant response rating (0 to 100), Wild oat (wild oat; Rate 31 g/ha): 20
- Plant response rating (0 to 100), Duck salad (duck salad; Rate 16 g/ha): 0
- Plant response rating (0 to 100), Duck salad (duck salad; Rate 31 g/ha): 0
- Plant response rating Duck salad (duck salad; 62 g/ha): 30
- Plant response rating Duck salad (duck salad; 125 g/ha): 50
- Plant response rating (0 to 100), Barnyardgrass (barnyardgrass; Rate 16 g/ha): 100
- Plant response rating (0 to 100), Barnyardgrass (barnyardgrass; Rate 31 g/ha): 100
- Plant response rating, Barnyardgrass (barnyardgrass; 62 g/ha): 100
- Plant response rating, Barnyardgrass (barnyardgrass; 125 g/ha): 100
